Data: article PMC4894417, “Quantitative High-Throughput Profiling of Environmental Chemicals and Drugs that Modulate Farnesoid X Receptor” (Scientific Reports, 2014)
“And” between values parts separate entries of the source, which are not always exact repeats. Identical values can stand only once. “Also recorded” adds a separate entry of the source. Like-named read-outs stand apart in the source and are kept apart here.

Key:
[1] = tested on: FXR-UAS-bla HEK293T cells; assay: Cell viability assay (CellTiter Glo) in the same well as FXR-bla; conditions: for Cytotoxicity IC50: Table S1, primary screening; for Cell viability IC50: Table 1, mean ± SD of 3 experiments
vitamin D receptor (VDR) = vitamin D receptor (VDR) (Homo sapiens, UniProt P11473); assay: VDR-bla reporter gene assay (agonist and antagonist modes)
human FXR [2] = target: T1, human FXR (Homo sapiens, UniProt Q96RI1); assay: FXR-bla reporter gene assay, antagonist mode (CDCA-induced transactivation); conditions: for FXR-bla, antagonist Efficacy: inhibition as percent of positive control (guggulsterone); for FXR antagonist activity: FXR-bla assay
human FXR [3] = target: T1, human FXR; assay: FXR-bla reporter gene assay, agonist mode (qHTS); conditions: for FXR-bla, agonist Efficacy: Table 1, activation as percent of positive control (CDCA 100%), mean ± SD of 3; for FXR-bla, agonist EC50: Table 1, confirmed compounds, mean ± SD of 3 experiments
[4] = tested on: FXR-UAS-bla HEK293T cells
FXR-LBD [5] = target: T2, FXR-LBD (Homo sapiens, UniProt Q96RI1); assay: FXR TR-FRET coactivator recruitment assay, antagonist mode (50 μM CDCA); type: biochemical
T2 construct: The glutathione S-transferase (GST)-tagged FXR-LBD protein; purchased Life Technologies
T2 sequence (Q96RI1 262-486 limits assumed): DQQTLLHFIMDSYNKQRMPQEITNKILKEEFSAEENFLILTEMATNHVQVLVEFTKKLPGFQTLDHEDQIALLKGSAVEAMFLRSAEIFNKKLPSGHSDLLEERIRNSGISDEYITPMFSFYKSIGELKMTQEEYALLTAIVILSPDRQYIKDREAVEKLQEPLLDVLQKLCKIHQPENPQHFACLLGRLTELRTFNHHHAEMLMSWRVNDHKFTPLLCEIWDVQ

FXR-LBD [6] = target: T2, FXR-LBD; assay: FXR TR-FRET coactivator recruitment assay, agonist mode; type: biochemical; conditions: Table 1; coactivator SRC2-2 recruitment
[7] = target: peroxisome proliferator-activated receptor gamma (PPARγ) (Homo sapiens, UniProt P37231); assay: PPARγ-bla reporter gene assay (agonist and antagonist modes)
[8] = Table 1, in the presence of 50 μM CDCA
[9] = Table S1, primary screening, 50 µM CDCA
[10] = read-out: FXR agonist mode EC50, Table S1, primary screening

vitamin D receptor (VDR), sequence (P11473 with tags, fused parts or gaps limits assumed): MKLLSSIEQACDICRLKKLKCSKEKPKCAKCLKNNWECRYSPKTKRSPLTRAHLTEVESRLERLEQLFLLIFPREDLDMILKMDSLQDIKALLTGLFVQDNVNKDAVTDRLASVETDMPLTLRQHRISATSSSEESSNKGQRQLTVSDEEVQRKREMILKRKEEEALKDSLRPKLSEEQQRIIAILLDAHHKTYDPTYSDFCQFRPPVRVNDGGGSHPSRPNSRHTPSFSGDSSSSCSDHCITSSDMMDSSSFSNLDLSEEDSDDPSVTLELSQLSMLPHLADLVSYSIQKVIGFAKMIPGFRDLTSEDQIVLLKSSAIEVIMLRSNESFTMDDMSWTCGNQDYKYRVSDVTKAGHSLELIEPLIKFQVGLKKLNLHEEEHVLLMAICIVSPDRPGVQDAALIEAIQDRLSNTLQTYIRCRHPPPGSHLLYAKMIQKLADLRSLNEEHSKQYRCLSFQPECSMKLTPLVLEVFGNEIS
T1 sequence (Q96RI1 with tags, fused parts or gaps limits assumed): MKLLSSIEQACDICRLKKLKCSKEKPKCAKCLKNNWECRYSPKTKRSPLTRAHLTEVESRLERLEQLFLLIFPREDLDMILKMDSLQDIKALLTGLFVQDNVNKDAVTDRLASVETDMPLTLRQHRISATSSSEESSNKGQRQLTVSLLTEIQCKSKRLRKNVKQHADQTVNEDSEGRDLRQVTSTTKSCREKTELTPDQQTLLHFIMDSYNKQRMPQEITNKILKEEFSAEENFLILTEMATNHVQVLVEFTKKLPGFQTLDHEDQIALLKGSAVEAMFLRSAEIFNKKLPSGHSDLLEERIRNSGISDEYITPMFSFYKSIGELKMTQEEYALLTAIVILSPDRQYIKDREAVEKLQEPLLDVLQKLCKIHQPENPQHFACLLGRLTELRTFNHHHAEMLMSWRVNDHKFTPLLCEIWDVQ
peroxisome proliferator-activated receptor gamma (PPARγ), sequence (P37231 with tags, fused parts or gaps limits assumed): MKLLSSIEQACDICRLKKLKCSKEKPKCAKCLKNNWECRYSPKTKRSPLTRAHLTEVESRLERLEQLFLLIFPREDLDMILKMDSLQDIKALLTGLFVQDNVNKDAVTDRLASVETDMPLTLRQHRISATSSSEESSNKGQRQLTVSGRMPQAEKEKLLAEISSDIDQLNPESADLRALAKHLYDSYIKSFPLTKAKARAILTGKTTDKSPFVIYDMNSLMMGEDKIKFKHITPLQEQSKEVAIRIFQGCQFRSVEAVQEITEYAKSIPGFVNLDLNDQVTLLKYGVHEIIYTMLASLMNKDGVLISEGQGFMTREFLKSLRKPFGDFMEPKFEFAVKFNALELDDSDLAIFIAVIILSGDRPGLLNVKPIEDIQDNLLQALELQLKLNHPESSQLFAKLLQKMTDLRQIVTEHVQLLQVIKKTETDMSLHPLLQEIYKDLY

For `CC(C)[C@H](C(=O)OC(C#N)c1cccc(Oc2ccccc2)c1)c1ccc(OC(F)F)cc1` (some centres unmarked) [Flucythrinate], the “Cytotoxicity IC50” value [1] was “Inactive”, the “VDR activity” value (vitamin D receptor (VDR)) was “antagonist activity” and the “FXR antagonist mode Efficacy” value (human FXR [2]) was 37 ± 9. For the same compound, the IC50 (human FXR [2]; FXR antagonist mode IC50) was 31.4 ± 20.5 µM and the “FXR agonist mode EC50” value (human FXR [3]; Table S1, primary screening) was “Inactive”.
`CO[C@H]1C[C@H](O[C@@H]2/C(C)=C/C[C@@H]3C[C@@H](C[C@]4(CC[C@H](C)[C@@H](C5CCCCC5)O4)O3)OC(=O)[C@@H]3C=C(C)/C(=N/O)[C@H]4OC/C(=C\C=C\[C@@H]2C)[C@]43O)O[C@@H](C)[C@@H]1O` [Selamectin] was tested, and the “Cytotoxicity IC50” value [4] was “Inactive”, the “FXR antagonist Efficacy” value (human FXR [2]) was 45 ± 6% and the “FXR antagonist mode Efficacy” value (human FXR [2]) was 45 ± 6%. The IC50 (human FXR [2]; FXR antagonist mode IC50) was 2.48 ± 0.82 µM, the “FXR agonist Efficacy” value (human FXR [3]) was 68 ± 5% and the “FXR agonist mode Efficacy” value (human FXR [3]) was 68 ± 5%. The EC50 (human FXR [3]; FXR agonist mode EC50) was 5.98 ± 0.39 µM.
With `Nc1c2ccccc2nc2ccccc12` [9-Aminoacridine] the “Cell viability IC50” value [1] was “Inactive”, the “FXR TR-FRET, antagonist IC50” value (FXR-LBD [5]; [8]) was “Inactive” and the “FXR TR-FRET, agonist EC50” value (FXR-LBD [6]) was “unable to induce coactivator recruitment; also recorded: Inactive”. For the same compound, the “FXR-bla, antagonist IC50” value (human FXR [2]; Table 1, 50 μM CDCA, mean ± SD of 3 experiments) was “Inactive”, the EC50 (human FXR [3]) was 11.2 ± 2.09 µM and the “FXR-bla, agonist Efficacy” value (human FXR [3]) was 152% and 152 ± 22%.
For `CC1(C)C(/C=C(\Cl)C(F)(F)F)C1C(=O)OC(C#N)c1cccc(Oc2ccccc2)c1` (centres unmarked) [Cyhalothrin], the “Cytotoxicity IC50” value [1] was “Inactive”, the “VDR activity” value (vitamin D receptor (VDR)) was “antagonist activity” and the “FXR antagonist mode Efficacy” value (human FXR [2]) was 50 ± 15. For the same compound, the IC50 (human FXR [2]; FXR antagonist mode IC50) was 21.3 ± 13.1 µM and the “FXR agonist mode EC50” value (human FXR [3]; Table S1, primary screening) was “Inactive”.
With `Cn1cc(C2=C(c3cn(C4CCN(Cc5ccccn5)CC4)c4ccccc34)C(=O)NC2=O)c2ccccc21` [Enzastaurin] the “Cell viability IC50” value [1] was “Inactive”, the “FXR TR-FRET, antagonist IC50” value (FXR-LBD [5]; [8]) was “Inactive” and the “FXR TR-FRET, agonist EC50” value (FXR-LBD [6]) was “Inactive”. The IC50 (human FXR [2]) was 10.2 ± 0.69 µM, the “FXR-bla, antagonist Efficacy” value (human FXR [2]; Table 1, 50 μM CDCA) was 110 ± 9% and the “FXR-bla, agonist EC50” value (human FXR [3]) was “Inactive”.
In the case of `C/C=C1\C(=O)C[C@H]2[C@@H]3CCC4=CC(=O)CC[C@]4(C)[C@H]3CC[C@]12C` [(Z)-Guggulsterone], the “Cytotoxicity IC50” value [4] is reported as “Inactive”.
In the case of Eprinomectin B1a, the “Cytotoxicity Efficacy” value [4] is reported as 108 ± 4%, the EC50 [4] is reported as 14 ± 1.6 µM and the IC50 [4] is reported as 14 ± 1.6 µM. For the same compound, the “FXR antagonist mode Efficacy” value (human FXR [2]; [9]) was 110 ± 6%, the “FXR antagonist Efficacy” value (human FXR [2]; Table S3, 50 µM CDCA) was 110 ± 6% and the IC50 (human FXR [2]; read-out: FXR antagonist mode IC50, Table S1, primary screening, 50 µM CDCA) was 14.5 ± 0.98 µM. For the same compound, the “FXR agonist mode Efficacy” value (human FXR [3]; Table S1, primary screening, CDCA 100%) was 41 ± 1%, the “FXR agonist Efficacy” value (human FXR [3]; Table S3) was 41 ± 1% and the EC50 (human FXR [3]; [10]) was 5.33 ± 0.35 µM.
In the case of `O=C1c2ccccc2C(=O)C1C(=O)C(c1ccccc1)c1ccccc1` [Diphacinone], the “Cell viability IC50” value [1] is reported as “Inactive”, the “FXR TR-FRET, antagonist IC50” value (FXR-LBD [5]) is reported as “Inactive” and the “FXR TR-FRET, agonist EC50” value (FXR-LBD [6]) is reported as “Inactive”. For the same compound, the IC50 (human FXR [2]; FXR-bla, antagonist IC50) was 15 µM and the “FXR-bla, agonist EC50” value (human FXR [3]) was “Inactive”.
With `CC1(C)CCC(C)(C)c2cc(NC(=O)c3ccc(C(=O)O)cc3)ccc21` [AM80] the “Cytotoxicity IC50” value [4] was “Inactive”, the “FXR antagonist mode IC50” value (human FXR [2]) was “Inactive” and the “FXR agonist mode Efficacy” value (human FXR [3]) was 18 ± 7. The “FXR agonist activity” value (human FXR [3]; FXR-bla assay) was “selectively induced transactivation of FXR” and the EC50 (human FXR [3]; [10]) was 38.9 ± 2.36 µM.
In the case of `CC1=C(/C=C/C(C)=C/C=C/C(C)=C\C(=O)O)C(C)(C)CCC1` [13-cis Retinoic acid], the “Cytotoxicity Efficacy” value [4] is reported as 52 ± 44.
In the case of `OCCN(CCO)c1nc(N2CCCCC2)c2nc(N(CCO)CCO)nc(N3CCCCC3)c2n1` [Dipyridamole], the “Cell viability IC50” value [1] is reported as “Inactive”, the “FXR TR-FRET, antagonist IC50” value (FXR-LBD [5]; [8]) is reported as “Inactive” and the “FXR TR-FRET, agonist EC50” value (FXR-LBD [6]) is reported as “Inactive”. For the same compound, the IC50 (human FXR [2]) was 3.5 ± 0.4 µM, the “FXR-bla, antagonist Efficacy” value (human FXR [2]; Table 1, 50 μM CDCA) was 81 ± 5% and the “FXR antagonist Efficacy” value (human FXR [2]; Table S3, 50 µM CDCA) was 53 ± 11%. For the same compound, the “FXR-bla, agonist EC50” value (human FXR [3]) was “Inactive”.
For `C/C=C1/C(=O)C[C@H]2[C@@H]3CCC4=CC(=O)CC[C@]4(C)[C@H]3CC[C@]12C` [(E)-Guggulsterone], the “Cytotoxicity IC50” value [4] was “Inactive”.
With `O=c1c(-c2ccc(O)cc2)coc2cc(O)cc(O)c12` [Genistein] the “Cytotoxicity IC50” value [4] was “Inactive”, the IC50 (human FXR [2]; FXR antagonist mode IC50) was 22.9 ± 3.16 µM and the “FXR antagonist mode Efficacy” value (human FXR [2]; [9]) was 57 ± 6%. The “FXR agonist mode EC50” value (human FXR [3]; Table S1, primary screening) was “Inactive”.
`COCCOC(=O)C1=C(C)NC(C)=C(C(=O)OC(C)C)C1c1cccc([N+](=O)[O-])c1` (centres unmarked) [Nimodipine] was tested, and the “Cytotoxicity IC50” value [4] was “Inactive”.
In the case of `CC[C@]1(O)C[C@@H]2CN(CCc3c([nH]c4ccccc34)[C@@](C(=O)OC)(c3cc4c(cc3OC)N(C)[C@H]3[C@@](O)(C(=O)OC)[C@H](OC(C)=O)[C@]5(CC)C=CCN6CC[C@]43[C@@H]65)C2)C1` [Vinblastine], the “Cell viability IC50” value [1] is reported as “Inactive”, the “FXR TR-FRET, antagonist IC50” value (FXR-LBD [5]; [8]) is reported as “Inactive” and the “FXR TR-FRET, agonist EC50” value (FXR-LBD [6]) is reported as “Inactive”. The IC50 (human FXR [2]) was 0.1 ± 0.04 µM, the “FXR-bla, antagonist Efficacy” value (human FXR [2]; Table 1, 50 μM CDCA) was 57 ± 7% and the “FXR antagonist Efficacy” value (human FXR [2]; Table S3, 50 µM CDCA) was 59 ± 2%. For the same compound, the “FXR-bla, agonist EC50” value (human FXR [3]) was “Inactive”.
`CC1=C2C[C@H]3[C@@H](CC=C4C[C@@H](O)CC[C@@]43C)[C@@H]2CC[C@]12O[C@@H]1C[C@H](C)CN[C@H]1[C@H]2C` [Cyclopamine] was tested, and the IC50 ([1]; Homo sapiens, HEK-293T, read-out: Cell viability IC50) was 17.6 µM, the “FXR TR-FRET, antagonist IC50” value (FXR-LBD [5]; [8]) was “Inactive” and the “FXR TR-FRET, agonist EC50” value (FXR-LBD [6]) was “unable to induce coactivator recruitment; also recorded: Inactive”. For the same compound, the “FXR-bla, antagonist IC50” value (human FXR [2]) was “Inactive”, the EC50 (human FXR [3]) was 10.6 ± 3.13 µM and the “FXR-bla, agonist Efficacy” value (human FXR [3]) was 94% and 94 ± 9%.
For `COC(=O)C1=C(C)NC(C)=C(C(=O)OC(C)(C)CN(C)CCC(c2ccccc2)c2ccccc2)C1c1cccc([N+](=O)[O-])c1` (centres unmarked) [Lercanidipine], the “Cytotoxicity IC50” value [1] was “Inactive”, the IC50 (human FXR [2]) was 15.5 ± 9.59 µM and the “FXR antagonist Efficacy” value (human FXR [2]; Table S3, 50 µM CDCA) was -71 ± 10%. The “FXR agonist mode EC50” value (human FXR [3]; Table S1, primary screening) was “Inactive”.
In the case of `Cc1c(COC(=O)[C@@H]2[C@H](/C=C(\Cl)C(F)(F)F)C2(C)C)cccc1-c1ccccc1` (racemic) [Bifenthrin], the “Cytotoxicity IC50” value [1] is reported as “Inactive”, the “FXR antagonist mode Efficacy” value (human FXR [2]) is reported as 50 ± 16 and the IC50 (human FXR [2]; FXR antagonist mode IC50) is reported as 11.3 ± 4.58 µM. The “FXR antagonist activity” value (human FXR [2]; CDCA-induced) was “highly selective FXR antagonists” and the “FXR agonist mode EC50” value (human FXR [3]; Table S1, primary screening) was “Inactive”.
For `COC(=O)Nc1nc2ccc(C(=O)c3cccs3)cc2[nH]1` [Nocodazole], the “PPARγ activity” value [7] was “inhibiting β-lactamase expression”, the “Cell viability IC50” value [1] was “Inactive” and the “FXR TR-FRET, antagonist IC50” value (FXR-LBD [5]) was “Inactive”. The “VDR activity” value (vitamin D receptor (VDR)) was “inhibiting β-lactamase expression”, the “FXR TR-FRET, agonist EC50” value (FXR-LBD [6]) was “Inactive” and the “FXR antagonist Efficacy” value (human FXR [2]) was 54 ± 2%. The “FXR antagonist activity” value (human FXR [2]; CDCA-induced) was “inhibiting β-lactamase expression”, the IC50 (human FXR [2]; FXR-bla, antagonist IC50) was 0.29 µM and the IC50 (human FXR [2]; IC50, FXR-bla antagonist mode, primary screening, CDCA-induced) was 0.32 µM. For the same compound, the “FXR-bla, agonist EC50” value (human FXR [3]) was “Inactive”.
